In patent US8969357B2, “Methods for treating HCV” (AbbVie Inc., priority 2011, dated 2015):

Key:
1b-Con1 replicons = experiment: Predominant resistant variants selected in genotype 1b replicons; format: cell-based, HCV
Protocol: (§1) Predominant resistant variants selected by Compound 1, 2, or 4 in genotype 1 replicons were also determined. For Compound 1, the predominant resistance variants in 1a-H77 replicons include R155K, D168A and D168V with fold resistance of 26, 48 and 128, respectively; and the predominant resistance variants in 1b-Con1 replicons include R155K, A156T and D168V with fold resistance of 48, 9 and 190, respectively. For Compound 2, the predominant resistance variants in 1a-H77 replicons include C316Y, M414T, Y448C and S556G with fold resistance of 1600, 36, 980 and 15, respectively; and the predominant resistance variants in 1b-Con1 replicons include C316Y, M414T and D559G with fold resistance of 1400, 26 and 100, respectively. For Compound 4, the predominant resistance variants in 1a-H77 replicons include M28T, M28V, Q30R, Y93C and Y93H with fold resistance of 9000, 60, 800, 1700 and 41000, respectively; and the predominant resistance variants in 1b-Con1 replicons include Y93H with fold resistance of 55.

1a-H77 replicons = experiment: Predominant resistant variants selected in genotype 1a replicons; format: cell-based, HCV
Protocol: as §1

For `Cc1cnc(C(=O)N[C@H]2CCCCC/C=C\[C@@H]3C[C@@]3(C(=O)NS(=O)(=O)C3CC3)NC(=O)[C@@H]3C[C@@H](Oc4nc5ccccc5c5ccccc45)CN3C2=O)cn1` [Compound 1, (2R,6S,13aS,14aR,16aS,Z)—N-(cyclopropylsulfonyl)-6-(5-methylpyrazine-2-carboxamido)-5,16-dioxo-2-(phenanthridin-6-yloxy)-1,2,3,5,6,7,8,9,10,11,13a,14,14a,15,16,16a-hexadecahydrocyclopropa[e]pyrrolo[1,2-a][1,4]diazacyclopentadecine-14a-carboxamide], the fold resistance (1b-Con1 replicons; variant A156T) was 9 fold, the fold resistance (1b-Con1 replicons; variant D168V) was 190 fold and the fold resistance (1b-Con1 replicons; variant R155K) was 48 fold. The fold resistance (1a-H77 replicons; variant D168A) was 48 fold, the fold resistance (1a-H77 replicons; variant D168V) was 128 fold and the fold resistance (1a-H77 replicons; variant R155K) was 26 fold.
In the case of `COc1c(-c2ccc3cc(NS(C)(=O)=O)ccc3c2)cc(-n2ccc(=O)[nH]c2=O)cc1C(C)(C)C` [Compound 2, N-(6-(3-tert-butyl-5-(2,4-dioxo-3,4-dihydropyrimidin-1(2H)-yl)-2-methoxyphenyl)naphthalen-2-yl)methanesulfonamide], the fold resistance (1b-Con1 replicons; variant C316Y) is reported as 1400 fold, the fold resistance (1b-Con1 replicons; variant D559G) is reported as 100 fold and the fold resistance (1b-Con1 replicons; variant M414T) is reported as 26 fold. It also gave a fold resistance (1a-H77 replicons; variant C316Y) of 1600 fold, a fold resistance (1a-H77 replicons; variant M414T) of 36 fold and a fold resistance (1a-H77 replicons; variant S556G) of 15 fold. For the same molecule, the fold resistance (1a-H77 replicons; variant Y448C) was 980 fold.
For `COC(=O)N[C@H](C(=O)N1CCC[C@H]1C(=O)Nc1ccc([C@@H]2CC[C@@H](c3ccc(NC(=O)[C@@H]4CCCN4C(=O)[C@@H](NC(=O)OC)C(C)C)cc3)N2c2ccc(C(C)(C)C)cc2)cc1)C(C)C` [Compound 4, dimethyl (2S,2′S)-1,1′-((2S,2′S)-2,2′-(4,4′-(2S,5S)-1-(4-tert-butylphenyl)pyrrolidine-2,5,diyl)bis(4,1-phenylene))bis(azanediyl)bis(oxomethylene)bis(pyrrolidine-2,1-diyl)bis(3-methyl-1-oxobutane-2,1-diyl)dicarbamate], the fold resistance (1b-Con1 replicons; variant Y93H) was 55 fold, the fold resistance (1a-H77 replicons; variant M28T) was 9000 fold and the fold resistance (1a-H77 replicons; variant M28V) was 60 fold. For the same molecule, the fold resistance (1a-H77 replicons; variant Q30R) was 800 fold, the fold resistance (1a-H77 replicons; variant Y93C) was 1700 fold and the fold resistance (1a-H77 replicons; variant Y93H) was 41000 fold.
